Assay results: patent publication US20090312624A1, “ELECTROPHY[…] FOR COGNITIVE MODULATORS” (priority 2008, published 2009)
Entries after “also recorded” stand apart in the source; their conditions may differ. Where two headings read alike, the source gives them in different places.

Legend:
prefrontal cortex = experiment: Evoked-response potential (ERP) recorded in the prefrontal cortex following electrical stimulation of the ventral subiculum of the hippocampus; format: in vivo, rat; settings: for effect on the ERP recorded in the PFC (change from baseline): cognition-enhancing dose 0.5 mg/kg i.p., 0-30 min after administration, 0.5 mg/kg
Text: Male Sprague-Dawley rats (250-350 g) were surgically implanted with 1-4 EEG recording electrodes into the prelimbic region of the PFC (coordinates: A +3.0±1.0 mm; L 0.8±0.3 mm; V −3.0) and a stimulation electrode into the subiculum/CA1 region of the hippocampus (coordinates: A −6.7; L 5.5; V −6.5). EEG signals were referenced to a ground electrode. Electrodes were held in place with acrylic cement and the animals were allowed to recover for 5-10 days prior to the measurements. Animals were provided with free access to food and water during testing.
Animals were tested during daylight hours in a Plexiglas testing chamber (32×32×40 cm) housed in a sound-attenuating chamber. Animals were first habituated to the testing chamber prior to experimentation. Field potentials/EEG signals were amplified and recorded digitally.
ERPs were constructed from peristimulus time histograms. Stimulation intensity that provides a distinct, though not large, ERP (filtered approx. 0.5-150 Hz) was first confirmed from greater than or equal to 50 stimulations that were provided at greater than or equal to 0.1 Hz. Stimulus current (0.1-3.0 mA) from a constant current source was adjusted to produce ERPs that were at least detectable from background electrical activity. Following this calibration of subiculum/CA1 stimulation intensity, ERPs were then collected from one or two 15-minute blocks comprised of a 10-min of hippocampal stimulation period ([…]) followed by 5-minutes of no stimulation. Following baseline recordings, vehicle or a putative cognitive enhancing compound (i.e., psychostimulant such as MPH or other drugs) were administered. ERPs were recorded in 15-min blocks described above for the next 60-90-minutes.
Changes in ERPs were calculated from trial-bin counts used to generate peristimulus time histograms (PSTHs). Data were collected from non-sleep EEG states only, as determined from field potential recordings or in combination with video or other activity measurements. Each PSTH was generated from randomly selected stimulus presentations. Data were expressed as a percentage of baseline ERP activity (pre-vehicle or pre-MPH) and percentage change from saline, which permits comparisons between subjects with different magnitude/shape ERPs.
Appropriate statistical comparisons, including mixed two-way ANOVA with both repeated (time)- and between (treatments)-measures, were used to determine statistical significance of candidate compound-induced changes in PFC. Analyses of ERPs as a function of dose and time and post-hoc comparisons were performed (i.e., Fisher LSD test).

PFC-dependent cognition = settings: rats, cited from earlier work
[1] = system: catecholamine (norepinephrine and dopamine) neurotransmission; settings: moderately higher doses that do not improve PFC-dependent cognition; cited from earlier work

Compound: COC(=O)C(c1ccccc1)C1CCCCN1 (stereo not shown) [MPH, methylphenidate]
- components of the ERP versus pre-treatment recordings (baseline) (prefrontal cortex; 30-60 minute period following drug treatment): a number of components of the ERP were different
- effect on the ERP recorded in the PFC (change from baseline) (prefrontal cortex): clearly visible and distinct change from baseline; also recorded: alter the magnitude of specific components of the ERP
- effect on the ERP recorded in the PFC (change from baseline) (prefrontal cortex; listed as methylphenidate): significant effects
- effect on the ERP recorded in the PFC (prefrontal cortex; higher doses that do not improve PFC-dependent cognition (2.0 mg/kg i.p.)): do not significantly affect this ERP; also recorded: not observed
- effect on PFC-dependent cognition (PFC-dependent cognition; 0.5 mg/kg): exerting cognition-enhancing effects
- effect on PFC-dependent cognition (PFC-dependent cognition; 2.0 mg/kg): cognition-impairing; also recorded: lacking cognition-enhancing actions
- selective targeting of prefrontal cortical catecholamines [1]: not observed
